Data published in ChEMBL document CHEMBL1201862, “PubChem BioAssay data set” (2004).
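48-hour exposure; five concentrations; linearly interpolated endpoints. GI50 marks 50% less growth.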 Active and inactive are the calls of the source. No stated cut-off is given here; in the data, active = GI50 up to about 1.1 µM and inactive = higher.

Legend:
Assay in all cases: NCI anticancer screen, dose series, 48 h
[1] = tested on: 786-0
[2] = tested on: A498
[3] = tested on: A549
[4] = tested on: ACHN
[5] = tested on: BT-549
[6] = tested on: CAKI-1
[7] = tested on: CCRF-CEM
[8] = tested on: COLO 205
[9] = tested on: DU-145
[10] = tested on: EKVX
[11] = tested on: HCC 2998
[12] = tested on: HCT-116
[13] = tested on: HCT-15
[14] = tested on: HL-60
[15] = tested on: HOP-62
[16] = tested on: HOP-92
[17] = tested on: HT-29
[18] = tested on: Hs-578T
[19] = tested on: IGROV-1
[20] = tested on: K562
[21] = tested on: KM12
[22] = tested on: LOX IMVI
[23] = tested on: M14
[24] = tested on: MCF7
[25] = tested on: MDA-MB-231
[26] = tested on: MDA-MB-435
[27] = tested on: MDA-N
[28] = tested on: MOLT-4
[29] = tested on: Malme-3M
[30] = tested on: NCI-H226
[31] = tested on: NCI-H23
[32] = tested on: NCI-H460
[33] = tested on: NCI-H522
[34] = tested on: NCI/ADR-RES
[35] = tested on: OVCAR-3
[36] = tested on: OVCAR-4
[37] = tested on: OVCAR-5
[38] = tested on: OVCAR-8
[39] = tested on: PC-3
[40] = tested on: RXF 393
[41] = tested on: SF-268
[42] = tested on: SF-295
[43] = tested on: SF-539
[44] = tested on: SK-MEL-28
[45] = tested on: SK-MEL-5
[46] = tested on: SK-OV-3
[47] = tested on: SN12C
[48] = tested on: SNB-19
[49] = tested on: SNB-75
[50] = tested on: SW-620
[51] = tested on: T47D
[52] = tested on: TK-10
[53] = tested on: U-251
[54] = tested on: UACC-257
[55] = tested on: UACC-62
[56] = tested on: UO-31
[57] = tested on: RPMI-8226
[58] = tested on: SK-MEL-2
[59] = tested on: SR

Structure (SMILES): CSc1c(C#N)c(N)n2c1C(=O)N(c1ccccc1)C2=S
- GI50 [1]: 32.6 µM (inactive)
- GI50 [2]: 23 µM (inactive)
- GI50 [3]: > 100 µM (inactive)
- GI50 [4]: 48.2 µM (inactive)
- GI50 [5]: > 100 µM (inactive)
- GI50 [6]: 77.1 µM (inactive)
- GI50 [7]: 68.2 µM (inactive)
- GI50 [8]: 30 µM (inactive)
- GI50 [9]: > 100 µM (inactive)
- GI50 [10]: 8.2 µM (inactive)
- GI50 [11]: > 100 µM (inactive)
- GI50 [12]: 38.3 µM (inactive)
- GI50 [13]: > 100 µM
- GI50 [14]: > 100 µM (inactive)
- GI50 [15]: 63 µM (inactive)
- GI50 [16]: 31.3 µM (inactive)
- GI50 [17]: 90.2 µM (inactive)
- GI50 [18]: 28 µM (inactive)
- GI50 [19]: 41.7 µM (inactive)
- GI50 [20]: > 100 µM (inactive)
- GI50 [21]: 51.5 µM (inactive)
- GI50 [22]: 72.1 µM (inactive)
- GI50 [23]: > 100 µM (inactive)
- GI50 [24]: > 100 µM (inactive)
- GI50 [25]: 20.3 µM (inactive)
- GI50 [26]: > 100 µM (inactive)
- GI50 [27]: > 100 µM (inactive)
- GI50 [28]: > 100 µM (inactive)
- GI50 [29]: 90.4 µM (inactive)
- GI50 [30]: > 100 µM (inactive)
- GI50 [31]: 28.2 µM (inactive)
- GI50 [32]: > 100 µM (inactive)
- GI50 [33]: 21.2 µM (inactive)
- GI50 [34]: 80.5 µM (inactive)
- GI50 [35]: > 100 µM (inactive)
- GI50 [36]: 26.5 µM (inactive)
- GI50 [37]: > 100 µM (inactive)
- GI50 [38]: 92.9 µM (inactive)
- GI50 [39]: 61.7 µM (inactive)
- GI50 [40]: > 100 µM (inactive)
- GI50 [41]: 88.1 µM (inactive)
- GI50 [42]: 38.6 µM (inactive)
- GI50 [43]: 92.7 µM (inactive)
- GI50 [44]: > 100 µM (inactive)
- GI50 [45]: > 100 µM (inactive)
- GI50 [46]: 91.6 µM (inactive)
- GI50 [47]: 74 µM (inactive)
- GI50 [48]: > 100 µM (inactive)
- GI50 [49]: 53.3 µM (inactive)
- GI50 [50]: 85.1 µM (inactive)
- GI50 [51]: 52.6 µM (inactive)
- GI50 [52]: > 100 µM (inactive)
- GI50 [53]: 41.9 µM (inactive)
- GI50 [54]: > 100 µM (inactive)
- GI50 [55]: > 100 µM (inactive)
- GI50 [56]: > 100 µM (inactive)

Structure (SMILES): Cc1ccc(O)c(Cc2nc3ccccc3nc2-c2cccc(Br)c2)c1
- GI50 [1]: 57 µM (inactive)
- GI50 [3]: > 100 µM (inactive)
- GI50 [4]: 55.1 µM (inactive)
- GI50 [5]: > 100 µM (inactive)
- GI50 [6]: 85.3 µM (inactive)
- GI50 [7]: 28.4 µM (inactive)
- GI50 [8]: > 100 µM (inactive)
- GI50 [9]: > 100 µM (inactive)
- GI50 [10]: > 100 µM (inactive)
- GI50 [12]: 48.5 µM (inactive)
- GI50 [13]: 22.3 µM
- GI50 [14]: 52.1 µM (inactive)
- GI50 [15]: > 100 µM (inactive)
- GI50 [16]: > 100 µM (inactive)
- GI50 [17]: > 100 µM (inactive)
- GI50 [18]: 12.5 µM (inactive)
- GI50 [19]: 46 µM (inactive)
- GI50 [20]: 34.4 µM (inactive)
- GI50 [21]: > 100 µM (inactive)
- GI50 [22]: > 100 µM (inactive)
- GI50 [23]: > 100 µM (inactive)
- GI50 [24]: 37.1 µM (inactive)
- GI50 [25]: > 100 µM (inactive)
- GI50 [26]: > 100 µM (inactive)
- GI50 [27]: > 100 µM (inactive)
- GI50 [28]: 25.2 µM (inactive)
- GI50 [29]: > 100 µM (inactive)
- GI50 [30]: > 100 µM (inactive)
- GI50 [31]: > 100 µM (inactive)
- GI50 [32]: > 100 µM (inactive)
- GI50 [33]: 44.2 µM (inactive)
- GI50 [34]: > 100 µM (inactive)
- GI50 [35]: > 100 µM (inactive)
- GI50 [36]: > 100 µM (inactive)
- GI50 [37]: > 100 µM (inactive)
- GI50 [38]: > 100 µM (inactive)
- GI50 [39]: > 100 µM (inactive)
- GI50 [57]: 47.3 µM (inactive)
- GI50 [40]: > 100 µM (inactive)
- GI50 [41]: > 100 µM (inactive)
- GI50 [42]: > 100 µM (inactive)
- GI50 [43]: > 100 µM (inactive)
- GI50 [58]: > 100 µM (inactive)
- GI50 [45]: > 100 µM (inactive)
- GI50 [46]: > 100 µM (inactive)
- GI50 [47]: > 100 µM (inactive)
- GI50 [48]: 19.9 µM (inactive)
- GI50 [49]: > 100 µM (inactive)
- GI50 [59]: 33.2 µM (inactive)
- GI50 [50]: 86.3 µM (inactive)
- GI50 [51]: > 100 µM (inactive)
- GI50 [52]: > 100 µM (inactive)
- GI50 [53]: > 100 µM (inactive)
- GI50 [54]: 45.7 µM (inactive)
- GI50 [55]: > 100 µM (inactive)
- GI50 [56]: 89.1 µM (inactive)

Structure (SMILES): O=C(c1ccc(Cl)cc1)N1N=C(c2ccc(Cl)cc2)CC1(O)c1cc(F)c(Cl)cc1Cl (stereo not given)
- GI50 [1]: 18.9 µM (inactive)
- GI50 [2]: 13.6 µM (inactive)
- GI50 [3]: 19.6 µM (inactive)
- GI50 [4]: 21.3 µM (inactive)
- GI50 [5]: 62.2 µM (inactive)
- GI50 [6]: 13.8 µM (inactive)
- GI50 [7]: 18.7 µM (inactive)
- GI50 [8]: 18.4 µM (inactive)
- GI50 [9]: 27.3 µM (inactive)
- GI50 [10]: 8.59 µM (inactive)
- GI50 [11]: 15.5 µM (inactive)
- GI50 [12]: 5.66 µM (inactive)
- GI50 [13]: 15.5 µM
- GI50 [14]: 21.2 µM (inactive)
- GI50 [15]: 32.1 µM (inactive)
- GI50 [16]: 11.6 µM (inactive)
- GI50 [17]: 8.95 µM (inactive)
- GI50 [18]: 39 µM (inactive)
- GI50 [19]: 17.9 µM (inactive)
- GI50 [20]: 7.24 µM (inactive)
- GI50 [21]: 6.97 µM (inactive)
- GI50 [22]: 15.2 µM (inactive)
- GI50 [23]: 28.7 µM (inactive)
- GI50 [24]: 7.14 µM (inactive)
- GI50 [25]: 34.2 µM (inactive)
- GI50 [26]: 16.7 µM (inactive)
- GI50 [27]: 13.6 µM (inactive)
- GI50 [28]: 9.25 µM (inactive)
- GI50 [29]: 30.6 µM (inactive)
- GI50 [30]: 50.6 µM (inactive)
- GI50 [31]: 12.2 µM (inactive)
- GI50 [32]: 21.7 µM (inactive)
- GI50 [33]: 12.9 µM (inactive)
- GI50 [34]: 18.4 µM (inactive)
- GI50 [35]: 21.8 µM (inactive)
- GI50 [36]: 12.8 µM (inactive)
- GI50 [37]: 28.2 µM (inactive)
- GI50 [38]: 21.3 µM (inactive)
- GI50 [39]: 10.4 µM (inactive)
- GI50 [57]: 8.22 µM (inactive)
- GI50 [40]: 23.9 µM (inactive)
- GI50 [41]: 47.4 µM (inactive)
- GI50 [42]: 20.6 µM (inactive)
- GI50 [43]: 69.3 µM (inactive)
- GI50 [44]: 44.3 µM (inactive)
- GI50 [58]: 17 µM (inactive)
- GI50 [45]: 68.2 µM (inactive)
- GI50 [46]: 62.4 µM (inactive)
- GI50 [47]: 14.5 µM (inactive)
- GI50 [48]: 14.6 µM (inactive)
- GI50 [49]: 10 µM (inactive)
- GI50 [50]: 17.4 µM (inactive)
- GI50 [51]: 9.95 µM (inactive)
- GI50 [52]: 52.7 µM (inactive)
- GI50 [53]: 15.5 µM (inactive)
- GI50 [54]: 25.7 µM (inactive)
- GI50 [55]: 21.5 µM (inactive)
- GI50 [56]: 9.06 µM (inactive)
